# Data from paper PMC11243693, “Synthesis and Biological Evaluation of New Compounds with Nitroimidazole Moiety” (Molecules, 2024).
# Tested on: Bacillus subtilis ATCC 6633
# Assay: Broth microdilution, B. subtilis ATCC 6633
# Assay type: cell-based
# Conditions: Bs 6633
# Description: (§1) The antibacterial activity of the obtained thiosemicarbazides and hydrazide–hydrazones was determined by evaluating their ability to inhibit microbial growth in vitro using the broth microdilution method, according to the guidelines of the European Committee on Antimicrobial Susceptibility Testing (EUCAST). The method involved the preparation of microbial suspensions with a standardized density of 0.5 on the McFarland scale (equivalent to 1.5 × 10^8 colony-forming units/mL for bacteria and […] for fungi). A solution of the test substances was then prepared (initial concentration 1000 µg/mL, diluted in sterile Mueller-Hinton broth for bacteria or Mueller-Hinton with 2% glucose for fungi). The test was carried out in 96-well polystyrene flat-bottom plates (Medlab, Poland) with 100 µL of appropriate sterile microbiological medium in each well. The first wells were filled with 200 µL of the test substance, diluted to the initial concentration, and then double-decreasing dilutions were made under aseptic conditions using an automatic pipette. The final step was the addition of a 10-fold diluted microbial suspension of 2 µL. At the same time, the following controls were included: (a) medium control (100 µL of sterile medium without microorganisms added), (b) microbial viability control, (c) test substance control (dilutions without added micro-organisms), (d) positive control of the drug used in the clinic. The plates thus prepared were incubated for 18 ± 2 h at 35 ± 2 °C under conditions optimal for the growth of the test microorganisms. After incubation, the spectrophotometric absorbance at 570 nm in each well of the plate was read. The aim of this part of the study was to determine two parameters: the minimum inhibitory concentration (MIC) and the minimum bactericidal or fungicidal concentration (MBC/MFC) of the test compound. […] The MBC value was determined by adding 5 µL of the contents of each well of the plate to solid sterile MHA or MHA + 2%glc medium for bacteria and fungi, respectively. The area on the plate where 99.9% inhibition of microbial growth was observed indicated the lethal concentration. In addition, the quotient MBC(MFC)/MIC could be determined to assess the nature of the activity of the test substance. If MBC(MFC)/MIC was <4, the test substance was bactericidal/fungicidal, whereas if MBC(MFC)/MIC was ≥4, it was bacteriostatic/fungistatic. Amoxicillin (Glentham Life Sciences, USA) and nystatin (Glentham Life Sciences, USA) were used as the controls for this assay.
# (§2) The test was performed either on bacteria, comprising: Gram-positive (Staphylococcus aureus ATCC 25923, Staphylococcus aureus ATCC 6538, Staphylococcus aureus ATCC 43300 methicillin-resistant MRSA, Staphylococcus epidermidis ATCC 12228, Micrococcus luteus ATCC 10240, Bacillus subtilis ATCC 6633, Bacillus cereus ATCC 10876) and Gram-negative (Escherichia coli ATCC 25922, Pseudomonas aeruginosa ATCC 27853, Proteus mirabilis ATCC 12453, Klebsiella pneumoniae ATCC 13883) or yeast (Candida parapsilosis ATCC 22019, Candida glabrata ATCC 90030, Candida krusei ATCC 14243, Candida glabrata ATCC 15126, Candida tropicalis ATCC 1369, Candida auris CDC B11903, Candida lusitaniae ATCC 3449) reference strains from the American Type Culture Collection (ATCC) or the Centers for Disease Control and Prevention (CDC).
SMILES,MBC,MIC
COc1ccc(NC(=S)NNC(=O)c2nc([N+](=O)[O-])cn2C)cc1 [Compound 11],250 µg/mL,250 µg/mL
Cc1ccccc1NC(=S)NNC(=O)c1nc([N+](=O)[O-])cn1C [Compound 15],1000 µg/mL,1000 µg/mL

# Same assay, conditions: Bs 6633; <4 bactericidal, ≥4 bacteriostatic
row,SMILES,MBC/MIC Ratio
1,COc1ccc(NC(=S)NNC(=O)c2nc([N+](=O)[O-])cn2C)cc1 [Compound 11],1
2,Cc1ccccc1NC(=S)NNC(=O)c1nc([N+](=O)[O-])cn1C [Compound 15],1

# Tested on: Candida lusitaniae ATCC 3449
# Assay: Broth microdilution, C. lusitaniae ATCC 3449
# Assay type: cell-based
# Conditions: Cl 3449
# Description: as §1, §2
row,SMILES,MIC
1,COc1ccc(NC(=S)NNC(=O)c2nc([N+](=O)[O-])cn2C)cc1 [Compound 11],>1000 µg/mL
2,Cc1ccccc1NC(=S)NNC(=O)c1nc([N+](=O)[O-])cn1C [Compound 15],>1000 µg/mL

# Tested on: Micrococcus luteus ATCC 10240
# Assay: Broth microdilution, M. luteus ATCC 10240
# Assay type: cell-based
# Conditions: Ml 10240
# Description: as §1, §2
SMILES,MBC,MIC
COc1ccc(NC(=S)NNC(=O)c2nc([N+](=O)[O-])cn2C)cc1 [Compound 11],500 µg/mL,250 µg/mL
Cc1ccccc1NC(=S)NNC(=O)c1nc([N+](=O)[O-])cn1C [Compound 15],500 µg/mL,500 µg/mL

# Same assay, conditions: Ml 10240; <4 bactericidal, ≥4 bacteriostatic
row,SMILES,MBC/MIC Ratio
1,COc1ccc(NC(=S)NNC(=O)c2nc([N+](=O)[O-])cn2C)cc1 [Compound 11],2
2,Cc1ccccc1NC(=S)NNC(=O)c1nc([N+](=O)[O-])cn1C [Compound 15],1

# Tested on: Staphylococcus epidermidis ATCC 12228
# Assay: Broth microdilution, S. epidermidis ATCC 12228
# Assay type: cell-based
# Conditions: Se 12228
# Description: as §1, §2
SMILES,MBC,MIC
COc1ccc(NC(=S)NNC(=O)c2nc([N+](=O)[O-])cn2C)cc1 [Compound 11],>1000 µg/mL,500 µg/mL
Cc1ccccc1NC(=S)NNC(=O)c1nc([N+](=O)[O-])cn1C [Compound 15],500 µg/mL,500 µg/mL

# Same assay, conditions: Se 12228; <4 bactericidal, ≥4 bacteriostatic
row,SMILES,MBC/MIC Ratio
1,Cc1ccccc1NC(=S)NNC(=O)c1nc([N+](=O)[O-])cn1C [Compound 15],1

# Tested on: Staphylococcus aureus ATCC 25923
# Assay: Broth microdilution, S. aureus ATCC 25923
# Assay type: cell-based
# Conditions: Sa 25923
# Description: as §1, §2
SMILES,MBC,MIC
COc1ccc(NC(=S)NNC(=O)c2nc([N+](=O)[O-])cn2C)cc1 [Compound 11],>1000 µg/mL,500 µg/mL
Cc1ccccc1NC(=S)NNC(=O)c1nc([N+](=O)[O-])cn1C [Compound 15],>1000 µg/mL,500 µg/mL

# Tested on: Candida glabrata ATCC 15126
# Assay: Broth microdilution, C. glabrata ATCC 15126
# Assay type: cell-based
# Conditions: Cg 15126
# Description: as §1, §2
row,SMILES,MIC
1,COc1ccc(NC(=S)NNC(=O)c2nc([N+](=O)[O-])cn2C)cc1 [Compound 11],>1000 µg/mL
2,Cc1ccccc1NC(=S)NNC(=O)c1nc([N+](=O)[O-])cn1C [Compound 15],>1000 µg/mL

# Tested on: Staphylococcus aureus ATCC 6538
# Assay: Broth microdilution, S. aureus ATCC 6538
# Assay type: cell-based
# Conditions: Sa 6538
# Description: as §1, §2
SMILES,MBC,MIC
COc1ccc(NC(=S)NNC(=O)c2nc([N+](=O)[O-])cn2C)cc1 [Compound 11],>1000 µg/mL,1000 µg/mL
Cc1ccccc1NC(=S)NNC(=O)c1nc([N+](=O)[O-])cn1C [Compound 15],>1000 µg/mL,250 µg/mL

# Tested on: Candida krusei ATCC 14243
# Assay: Broth microdilution, C. krusei ATCC 14243
# Assay type: cell-based
# Conditions: Ck 14243
# Description: as §1, §2
row,SMILES,MIC
1,COc1ccc(NC(=S)NNC(=O)c2nc([N+](=O)[O-])cn2C)cc1 [Compound 11],>1000 µg/mL
2,Cc1ccccc1NC(=S)NNC(=O)c1nc([N+](=O)[O-])cn1C [Compound 15],>1000 µg/mL

# Tested on: Staphylococcus aureus ATCC 43300 methicillin-resistant MRSA
# Assay: Broth microdilution, S. aureus ATCC 43300 MRSA
# Assay type: cell-based
# Conditions: Sa 43300 MRSA
# Description: as §1, §2
SMILES,MBC,MIC
COc1ccc(NC(=S)NNC(=O)c2nc([N+](=O)[O-])cn2C)cc1 [Compound 11],>1000 µg/mL,1000 µg/mL
Cc1ccccc1NC(=S)NNC(=O)c1nc([N+](=O)[O-])cn1C [Compound 15],>1000 µg/mL,250 µg/mL

# Tested on: Candida auris CDC B11903
# Assay: Broth microdilution, C. auris CDC B11903
# Assay type: cell-based
# Conditions: Ca B11903
# Description: as §1, §2
row,SMILES,MIC
1,COc1ccc(NC(=S)NNC(=O)c2nc([N+](=O)[O-])cn2C)cc1 [Compound 11],>1000 µg/mL
2,Cc1ccccc1NC(=S)NNC(=O)c1nc([N+](=O)[O-])cn1C [Compound 15],>1000 µg/mL

# Tested on: Candida tropicalis ATCC 1369
# Assay: Broth microdilution, C. tropicalis ATCC 1369
# Assay type: cell-based
# Conditions: Ct 1369
# Description: as §1, §2
SMILES,MFC,MIC
COc1ccc(NC(=S)NNC(=O)c2nc([N+](=O)[O-])cn2C)cc1 [Compound 11],>1000 µg/mL,250 µg/mL
Cc1ccccc1NC(=S)NNC(=O)c1nc([N+](=O)[O-])cn1C [Compound 15],>1000 µg/mL,500 µg/mL

# Tested on: Candida glabrata ATCC 90030
# Assay: Broth microdilution, C. glabrata ATCC 90030
# Assay type: cell-based
# Conditions: Cg 90030
# Description: as §1, §2
row,SMILES,MIC
1,COc1ccc(NC(=S)NNC(=O)c2nc([N+](=O)[O-])cn2C)cc1 [Compound 11],>1000 µg/mL
2,Cc1ccccc1NC(=S)NNC(=O)c1nc([N+](=O)[O-])cn1C [Compound 15],>1000 µg/mL

# Tested on: Bacillus cereus ATCC 10876
# Assay: Broth microdilution, B. cereus ATCC 10876
# Assay type: cell-based
# Conditions: Bc 10876
# Description: as §1, §2
SMILES,MBC,MIC
COc1ccc(NC(=S)NNC(=O)c2nc([N+](=O)[O-])cn2C)cc1 [Compound 11],250 µg/mL,250 µg/mL
Cc1ccccc1NC(=S)NNC(=O)c1nc([N+](=O)[O-])cn1C [Compound 15],500 µg/mL,500 µg/mL

# Same assay, conditions: Bc 10876; <4 bactericidal, ≥4 bacteriostatic
row,SMILES,MBC/MIC Ratio
1,COc1ccc(NC(=S)NNC(=O)c2nc([N+](=O)[O-])cn2C)cc1 [Compound 11],1
2,Cc1ccccc1NC(=S)NNC(=O)c1nc([N+](=O)[O-])cn1C [Compound 15],1

# Tested on: Candida parapsilosis ATCC 22019
# Assay: Broth microdilution, C. parapsilosis ATCC 22019
# Assay type: cell-based
# Conditions: Cp 22019
# Description: as §1, §2
SMILES,MFC,MIC
COc1ccc(NC(=S)NNC(=O)c2nc([N+](=O)[O-])cn2C)cc1 [Compound 11],>1000 µg/mL,250 µg/mL
Cc1ccccc1NC(=S)NNC(=O)c1nc([N+](=O)[O-])cn1C [Compound 15],–,>1000 µg/mL
